Measured values taken from US11395823B2, “Topical administration of MEK inhibiting agents for the treatment of skin disorders” (Duke University, priority 2018, dated 2022).

Tests used:
C57/BL6 mice [1] = assay: DNFB-induced atopic dermatitis model (ear swelling)
[2] = test system: recipient mouse T-cell alloreactivity; settings: oral administration; cited from earlier work
K5-CreER.Braf^Ca/+ mice = assay: Topical treatment of Braf mutation-induced skin tumors and inflammation in K5-CreER.Braf^Ca/+ mice; type: in vivo
Method: Experiments were conducted that tested whether topical dose trametinib can effectively treat the skin lesions induced by Braf mutation. To do this, Braf mutation was induced in the rear back skins of 2-month old K5-CreER.Braf^Ca/+ mice with 4-OHT, and 7 days later, applied five consecutive daily topical doses of trametinib (see, FIG. 3a).
Braf mutant animals: K14-Cre and K5-CreER mice were provided by Duke University. These animals were crossed with Tyr-CreER.Braf^Ca+/−.PTEN−/− mice which were provided by Duke University. Genotyping were performed via PCR. For topical induction, the back skins of adult animals were shaved and treated with two consecutive daily doses of 4-OHT (Sigma, 5 mg/ml in ethanol).
Mouse tissues: For H&E staining of mouse skins, 5 μm frozen tissue sections were fixed with ethanol and stained with Hematoxylin and Eosin. For immunostaining, 5 μm frozen tissue sections were fixed with cold methanol, incubated with and a primary antibody against CD8 (Tonbo Biosciences), and detected with a secondary antibody conjugated to Dylight 488 (Invitrogen) followed by counterstaining with Hoechst 33342. The images were obtained with the Olympus imaging system.

SKH-1Elite mice = assay: UV-induced skin carcinogenesis; type: in vivo
Excerpt: UV is a primary cause of melanoma and non-melanoma skin cancer. To assess whether topical trametinib inhibits UV-induced skin carcinogenesis, SKH animals (n=10, 5 male and 5 female) were irradiated biweekly with 160 mJ broad band UVB along with pretreatment of solvent or trametinib.
UV induction of skin carcinogenesis: Six weeks old hairless SKH-1Elite mice were obtained from (Jackson Laboratory). Animals were subject to UVB irradiation (160-180 mJ dose) 3 times per week for 20 weeks using rayminder model 2 UVB midband lamp M2D24H and UV513AB digital UVA/UVB (280-400 nm) meter of General Tools. Mouse back skins were pretreated before each UV-radiation with 100 μl of solvent (5% DMSO in 95% acetone:olive oil (3:1 mixture) or 10 to 30 μM trametinib (n=5/group/sex).

C57/BL6 mice [3] = assay: Imiquimod (IMQ)-induced psoriasis model

## CC(=O)Nc1cccc(-n2c(=O)n(C3CC3)c(=O)c3c(Nc4ccc(I)cc4F)n(C)c(=O)c(C)c32)c1 [trametinib, N-(3-{3-Cyclopropyl-5-[(2-fluoro-4-iodophenyl)amino]-6,8-dimethyl-2,4,7-trioxo-3,4,6,7-tetrahydropyrido[4,3-d]pyrimidin-1 (2H)-yl}phenyl)acetamide]
C57/BL6 mice [1]; 0.2 μM topical
  clinical appearance of DNFB challenged right ear lobes: appeared thickened and inflamed
C57/BL6 mice [1]; 20 μM topical
  clinical appearance of DNFB challenged right ear lobes: appeared smooth and normal
C57/BL6 mice [1]; daily topical 0.2, 2, 20 μM, right ear
  DNFB-induced ear swelling: reduced by trametinib at a dose response manner
C57/BL6 mice [1]; daily topical 0.2-20 μM
  thickness of the control (solvent-treated left) ears: not significantly affected
C57/BL6 mice [1]; topical
  thickened epidermis and dermal cellular infiltration of DNFB-treated skins (histology): normalized
C57/BL6 mice [1]; topical dosage
  histological appearance of kidney, spleen, and liver tissues: normal histological appearance
[2]
  recipient mouse T-cell alloreactivity: suppresses recipient mouse T-cell alloreactivity without affecting graft-vs-tumor effects
K5-CreER.Braf^Ca/+ mice; five consecutive daily topical doses starting 7 days after 4-OHT, by day 11
  skin tumors (clinical images): completely regressed
K5-CreER.Braf^Ca/+ mice; topical vs systemic
  treating oral lesions, topical versus systemic delivery of the same amount: more effective than systemic delivery
K5-CreER.Braf^Ca/+ mice; topical, five daily doses
  CD8+ immune cells in the dermis (immunostaining): reduced CD8+ immune cells in the dermis
  epidermal neoplasia (histological analysis, H&E): regressed epidermal neoplasia
SKH-1Elite mice; 10 μM topical pretreatment before each UVB irradiation
  number of tumor nodules: significantly lower number of tumor nodules
SKH-1Elite mice; 30 μM topical pretreatment before each UVB irradiation
  number of tumor nodules: significantly lower number of tumor nodules
C57/BL6 mice [3]; 60 μM topical
  animal weight loss: did not induce animal weight loss
  gross morphological changes of internal organs, including liver, kidney and spleen and lymph nodes: did not induce
C57/BL6 mice [3]; 60 μM topical, day 3
  PASI score: reduced the PASI score
C57/BL6 mice [3]; 60 μM topical, day 5
  PASI score difference to control: differences were minimized
C57/BL6 mice [3]; topical
  IMQ-induced epidermal thickening: reduces IMQ-induced epidermal thickening
